Each structure is given as a SMILES string.

The values below come from paper PMC10152543 (Journal of medicinal chemistry, 2022).

The series can be described thus: Parallel artificial membrane permeability assay. The series is classed as in vitro ADME. The conditions noted are these: result in words.

On to `Cc1ccc(CNC(=O)[C@@H]2Cc3cccc(c3)Oc3cccc(c3)C[C@H](N)C(=O)N[C@@H](CCc3ccccc3)C(=O)N2)cc1` [CP1, (5S,8S,11S)-11-amino-N-(4-methylbenzyl)-7,10-dioxo-8-phenethyl-2-oxa-6,9-diaza-1,3(1,3)-dibenzenacyclododecaphane-5-carboxamide], for which the “permeability by PAMPA” value is listed as “undetectable”.
`O=C(NC1CCCC1)[C@@H]1CCCCOc2cccc(c2)C[C@H](N2CCCC2=O)C(=O)N[C@@H](CCN2CCOCC2)C(=O)N1` [TDI8304]: the “permeability by PAMPA” value was “modest”.
